Patent publication US7153958B2, “Farnesyl transferase inhibiting benzoheterocyclic derivatives” (Janssen Pharmaceutica N.V., priority 2000, dated 2006)

| Structure (SMILES) | melting point [°C] |
| --- | --- |
| CN1C(=O)CN=C(c2cccc(Cl)c2)c2cc(C(N)(c3ccc(Cl)cc3)c3cncn3C)ccc21 (stereo not drawn) | 213 |
| CN1C(=O)CSC(c2cccc(Cl)c2)c2cc(C(N)(c3ccc(Cl)cc3)c3cncn3C)ccc21 (stereo not drawn) | 218 |
| Cn1cncc1C(N)(c1ccc(Cl)cc1)c1ccc2c(c1)C(c1cccc(Cl)c1)=NCc1nnnn1-2 (stereo not drawn) | 218 |
| Cn1cncc1C(c1ccc(Cl)cc1)c1ccc2c(c1)C(c1cccc(Cl)c1)SCC(=O)N2 (stereo not drawn) | 187 |
| Cn1cncc1C(O)(c1ccc(Cl)cc1)c1ccc2c(c1)C(c1cccc(Cl)c1)SCc1nnnn1-2 (stereo not drawn) | 217 |
| Cn1cncc1C(c1ccc(Cl)cc1)c1ccc2c(c1)C(c1cccc(Cl)c1)SCc1nnnn1-2 (stereo not drawn) | 162 |
| Cn1cncc1C(c1ccc(Cl)cc1)c1ccc2c(c1)C(c1cccc(Cl)c1)SCCC(=O)N2 (stereo not drawn) | 199 |
| Cn1cncc1C(O)(c1ccc(Cl)cc1)c1ccc2c(c1)C(c1cccc(Cl)c1)SCC(=O)N2 (stereo not drawn) | 210 |
| Cn1cncc1C(O)(c1ccc(Cl)cc1)c1ccc2c(c1)C(c1cccc(Cl)c1)SCC(=O)N2CC1CC1 (stereo not drawn) | 245 |
| Cn1cncc1C(O)(c1ccc(Cl)cc1)c1ccc2c(c1)C(c1cccc(Cl)c1)=NCC(=O)N2 (stereo not drawn) | 200 |
| CN1C(=O)CSC(c2cccc(Cl)c2)c2cc(C(O)(c3ccc(Cl)cc3)c3cncn3C)ccc21 (stereo not drawn) | 186 |
| CN1C(=O)CN=C(c2cccc(Cl)c2)c2cc(C(O)(c3ccc(Cl)cc3)c3cncn3C)ccc21 (stereo not drawn) | 226 |
| Cn1cncc1C(O)(c1ccc(Cl)cc1)c1ccc2c(c1)C(c1cccc(Cl)c1)=NCc1nnnn1-2 (stereo not drawn) | 240 |
| O=C1CN=C(c2ccccc2)c2cc(C(c3ccc(Cl)cc3)n3ccnc3)ccc2N1 (racemic) | 144 |
| Cn1cncc1C(O)(c1ccc(Cl)cc1)c1ccc2c(c1)C(c1cccc(Cl)c1)OCC(=O)N2 (stereo not drawn) [Example B1, 5-(3-chlorophenyl)-7-[(4-chlorophenyl)hydroxy(1-methyl-1H-imidazol-5-yl)methyl]-1,5-dihydro-4,1-benzoxazepin-2(3H)-one] | 260 |
| CN1C(=O)COC(c2cccc(Cl)c2)c2cc(C(O)(c3ccc(Cl)cc3)c3cncn3C)ccc21 (stereo not drawn) [Example B3, 5-(3-chlorophenyl)-7-[(4-chlorophenyl)hydroxy(1-methyl-1H-imidazol-5-yl)methyl]-1,5-dihydro-1-methyl-4,1-benzoxazepin-2(3H)-one] | 160 |
| CN1C(=O)CNC(c2cccc(Cl)c2)c2cc(C(O)(c3ccc(Cl)cc3)c3cncn3C)ccc21 (stereo not drawn) [Example B5, 5-(3-chlorophenyl)-7-[(4-chlorophenyl)hydroxy(1-methyl-1H-imidazol-5-yl)methyl]-1,3,4,5-tetrahydro-1-methyl-2H-1,4-benzodiazepin-2-one] | 208 |
| Cn1cncc1C(O)(c1ccc(Cl)cc1)c1ccc2c(c1)C(c1cccc(Cl)c1)OCC(=S)N2 (stereo not drawn) [Example B7, 5-(3-chlorophenyl)-7-[(4-chlorophenyl)hydroxy(1-methyl-1H-imidazol-5-yl)methyl]-1,5-dihydro-4,1-benzoxazepine-2(3H)-thione] | > 300 |
